From article PMC4538381, “Activation of Relaxin Family Receptor 1 from Different Mammalian Species by Relaxin Peptide and Small-Molecule Agonist ML290” (Frontiers in Endocrinology, 2015)
Entries after “also recorded” stand apart in the source; their conditions may differ.

Tests used:
[1] = test system: human RXFP1; assay: CRE-Luc BacMam luciferase assay, human RXFP1; assay type: cell-based; design: key to Activation of RXFP1 receptors: *: Weak; **: intermediate; ***: strong activation of the receptor
Procedure: (§1) GloResponse™ CRE-luc2P HEK293T cells stably transfected with cAMP response element-driven luciferase (CRE-Luc) reporter (Promega, Madison, WI, USA) were transduced with human, macaque, pig, and mouse RXFP1 expression BacMam vectors according to the manufacturer’s protocol (Invitrogen) and incubated at room temperature for 2 h in the dark with occasional mixing. The volume of the cell culture was adjusted to 1000 cells/μl with DMEM + 10% FBS. Cells (3 μl, 3000 cells) were plated on 1536-well white solid-bottom TC plates and incubated overnight at 37C°, 5% CO2. Four hundred […] Ro 20-1724 (Sigma-Aldrich, St. Louis, MO, USA) in PBS (1 μl) was added in each well. The cells were treated with serial dilutions of either Forskolin (Sigma-Aldrich), ML290 ([5]) or porcine RLN at final concentrations’ range (57 μM–3.5 pM) for Forskolin and ML290, and (8.7 μM–1.8 pM, or 57 ng/μl–0.012 pg/μl] for RLN. After 2 h stimulation at 37°C, 4 μl of detection reagent from Amplite™ Luciferase reporter gene assay kit (AAT Bioquest, Sunnyvale, CA, USA) was added as a mix of 90% Component A, 5% Component C, and 5% Component D, and incubated at room temperature for 5 min. Luminescent signal was measured on Viewlux uHTS Microplate Imager (PerkinElmer, Santa Clara, CA, USA). The data were processed using GraphPad Software (San Diego, CA, USA).

[2] = test system: macaque RXFP1; assay: CRE-Luc BacMam luciferase assay, macaque RXFP1; assay type: cell-based, rhesus macaque (Macaca mullata); design: key to Activation of RXFP1 receptors: *: Weak; **: intermediate; ***: strong activation of the receptor
Procedure: as §1

[3] = test system: pig RXFP1; assay: CRE-Luc BacMam luciferase assay, pig RXFP1; assay type: cell-based, pig (Sus scrofa); design: key to Activation of RXFP1 receptors: *: Weak; **: intermediate; ***: strong activation of the receptor
Procedure: as §1

[4] = test system: mouse RXFP1; assay: CRE-Luc BacMam luciferase assay, mouse RXFP1; assay type: cell-based; conditions: CRE-luc HEK293T, 2 h, highest concentrations of ML290 (range 57 μM–3.5 pM)
Procedure: as §1

[5] = test system: GH-RXFP1; assay: Direct HTRF cAMP assay, guinea pig/human chimera GH-RXFP1; assay type: cell-based; design: key to Activation of RXFP1 receptors: *: Weak; **: intermediate; ***: strong activation of the receptor
Procedure: (§2) The human, mouse, macaque, and pig RXFP1 cDNA constructs in baculovirus BacMam mammalian expression vector (Invitrogen, Carlsbad, CA, USA) were synthesized at the Eukaryotic Expression Group-Protein Expression laboratory (NCI, Frederick, MD, USA). The PCR primers for RT-PCR were designed to cover the full-length sequence of the open reading frame (ORF). PCR amplifications were performed with PfuUltra High-Fidelity DNA polymerase (Agilent Technologies, Santa Clara, CA, USA). Guinea pig RXFP1 (G-RXFP1) was amplified from guinea pig ovarian cDNA (Zyagen, San Diego, CA, USA). Rabbit RXFP1 (R1-RXFP1 and R2-RXFP1) cDNAs were amplified from rabbit uterus cDNA (Zyagen). All cloning was performed using the In-Fusion® HD Cloning Kit (Clontech Laboratories, Mountain View, CA, USA). Rabbit and guinea pig RXFP1s were cloned into pCR3.1 mammalian expression vector (Invitrogen). […]
(§3) Direct measurement of cAMP production was performed using the HTRF cAMP HiRange kit (CisBio, Bedford, MA, USA). […] The plates were incubated for 60 min at room temperature, and the signal was read on a FLUOstar Omega (BMG Labtech, Cary, NC, USA) plate reader. cAMP levels were calculated according to the manufacturer’s instructions against a standard curve. […]

[6] = test system: R1-RXFP1 and R2-RXFP1; assay: Direct HTRF cAMP assay, rabbit R1-RXFP1 and R2-RXFP1; assay type: cell-based, European rabbit (Oryctolagus cuniculus); design: key to Activation of RXFP1 receptors: *: Weak; **: intermediate; ***: strong activation of the receptor
Procedure: The human, mouse, macaque, and pig RXFP1 cDNA constructs in baculovirus BacMam mammalian expression vector (Invitrogen, Carlsbad, CA, USA) were synthesized at the Eukaryotic Expression Group-Protein Expression laboratory (NCI, Frederick, MD, USA). The PCR primers for RT-PCR were designed to cover the full-length sequence of the open reading frame (ORF). PCR amplifications were performed with PfuUltra High-Fidelity DNA polymerase (Agilent Technologies, Santa Clara, CA, USA). Guinea pig RXFP1 (G-RXFP1) was amplified from guinea pig ovarian cDNA (Zyagen, San Diego, CA, USA). Rabbit RXFP1 (R1-RXFP1 and R2-RXFP1) cDNAs were amplified from rabbit uterus cDNA (Zyagen). All cloning was performed using the In-Fusion® HD Cloning Kit (Clontech Laboratories, Mountain View, CA, USA). Rabbit and guinea pig RXFP1s were cloned into pCR3.1 mammalian expression vector (Invitrogen). In order to study RXFP1 surface expression, rabbit cDNAs were cloned into pcDNA3.1™/Zeo+ mammalian expression vector (Invitrogen), which contained an N-terminal FLAG-tag and a bovine prolactin signal sequence (3). […] To make chimeric clones, the human, guinea pig, and rabbit plasmid were used as templates to produce PCR amplicons, which were then used for overlapping PCR and subsequent cloning with the In-Fusion kit. The chimeric guinea pig/human GH-RXFP1 construct contains guinea pig RXFP1 cDNA (G-RXFP1, 1–1499 bp) encoding the ectodomain, TM1, TM2, and part of TM3 (amino acids 1–499 of G-RXFP1), and human RXFP1 (hRXFP1, 1509–2274 bp) encoding TM3 to the C-terminal tail of the receptor (amino acids 503–757 of hRXFP1) (Figure 1A). The recombinant chimeric human–rabbit HR-RXFP1 was made with the 5′-part of the hRXFP1 sequence (1–972 bp, LDLa-LRR9, 1–324 aa), with the remainder being the rabbit RXFP1 sequence (973–2277 bp, LRR9-C-terminal tail, 325–759 aa) (Figure 1A). The recombinant chimeric rabbit–human R1H-RXFP1 or R2H-RXFP1 contains the N-terminal rabbit RXFP1 sequence (1–972 bp for R1-RXFP1 or 975 bp for R2-RXFP1), with the remaining sequence being hRXFP1 (973–2274) (Figure 1A). R1- and R2-RXFP1 denote two variants of rabbit RXFP1 cDNA. All numbers correspond to the full-length cDNAs with the first nucleotide of the ORF.
HEK293T cell transient transfections were performed using Lipofectamine 2000 transfection reagent (Life Technologies, Grand Island, NY, USA) according to the manufacturer’s instructions. Cells transiently expressing the RXFP1 receptors were used within 48 h of transfection. Each construct was tested at least three times. For cell-conditioned media stimulation, HEK293T cells were transfected with the rabbit RLN construct (SQ10) or an empty pCR3.1 vector, and cells were cultured for 24 h. The media was used to stimulate HEK293T cells transfected with the RXFP1 receptors.
Direct measurement of cAMP production was performed using the HTRF cAMP HiRange kit (CisBio, Bedford, MA, USA). HEK293T cells transiently transfected with different RXFP1 receptors were stimulated with various concentrations of RLN peptides or ML290 for 60 min at 37°C, 5% CO2, after which, two HTRF detection reagents (diluted according to assay kit directions in HTRF lysis buffer) were added. The plates were incubated for 60 min at room temperature, and the signal was read on a FLUOstar Omega (BMG Labtech, Cary, NC, USA) plate reader. cAMP levels were calculated according to the manufacturer’s instructions against a standard curve. Statistical processing of the data was performed using GraphPad Prism software.

[7] = test system: HR-RXFP1; assay: Direct HTRF cAMP assay, human/rabbit chimera HR-RXFP1; assay type: cell-based; conditions: transiently transfected HEK293T, % of hRXFP1 activation by 10 nM RLN
Procedure: as §2, §3

[8] = test system: R1H-RXFP1 and R2H-RXFP1; assay: Direct HTRF cAMP assay, rabbit/human chimeras R1H- and R2H-RXFP1; assay type: cell-based; design: key to Activation of RXFP1 receptors: *: Weak; **: intermediate; ***: strong activation of the receptor
Procedure: as §2, §3

[9] = test system: R1-RXFP1; assay: Indirect CRE-β-gal reporter cAMP assay, rabbit R1-RXFP1; assay type: cell-based, European rabbit (Oryctolagus cuniculus); conditions: 6 h at 37°C, % of 5 μM Forskolin response
Procedure: For the indirect cAMP assay, changes in cAMP signaling were measured by co-transfection of receptors with a CRE-β-galactosidase (CRE-β-gal) reporter construct ([11]). Cells were stimulated for 6 h at 37°C with RLN peptides or ML290 at various concentrations. A non-linear regression sigmoidal dose–response curve was then produced using GraphPad Prism. All experiments were conducted at least three times with three to four replicates each time.

[10] = test system: mouse RXFP1 receptor; conditions: direct cAMP HTRF assay, ref [5]; cited from earlier work
[11] = test system: modified mouse receptor with humanized ECL3; conditions: ECL3 amino acids mutated, ref [5]; cited from earlier work
Description: The rabbit and guinea pig receptors provide new structural templates for analysis of RLN and ML290 activation of RXFP1. […] Indeed, it was shown that primary binding of RLN to RXFP1 involve sites within LRR4, 5, 6, and 8 ([2]). In contrast, the 7TM region of RXFP1, which is the site of allosteric small-molecule agonist binding, is functional in rabbits. The opposite was true for guinea pig RXFP1: despite having the same ECL3 sequence as pig ...

## CC(C)Oc1ccccc1C(=O)Nc1ccccc1C(=O)Nc1cccc(S(=O)(=O)C(F)(F)F)c1 [ML290]
[1]; Human receptor, summary grade, HEK293T cells
  Activation of RXFP1 receptors: ***
[1]; human RXFP1, CRE-luc HEK293T, 2 h, ML290 57 μM–3.5 pM
  cAMP response (luciferase activity): responded strongly to ML290 stimulation
[2]; Macaque receptor, summary grade, HEK293T cells
  Activation of RXFP1 receptors: ***
[2]; macaque RXFP1, CRE-luc HEK293T, 2 h, ML290 57 μM–3.5 pM, RLN 8.7 μM–1.8 pM
  cAMP response (luciferase activity): responded to relaxin and ML290 treatment; also recorded: responded strongly to ML290 stimulation; also recorded: fully activated by RLN and ML290
[3]; Pig receptor, summary grade, HEK293T cells
  Activation of RXFP1 receptors: ***
[3]; pig RXFP1, CRE-luc HEK293T, 2 h, ML290 57 μM–3.5 pM, RLN 8.7 μM–1.8 pM
  cAMP response (luciferase activity): responded to relaxin and ML290 treatment; also recorded: responded strongly to ML290 stimulation; also recorded: fully activated by RLN and ML290
[4]
  cAMP response (luciferase activity): significant increase in luciferase activity; also recorded: activation of the CRE-reporter was observed with high-dose ML290 treatment on the mouse receptor
[5]; GH-RXFP1, transiently transfected HEK293T, HTRF, 60 min at 37°C, % of 10 μM Forskolin response
  cAMP response: only partially restored ML290 activation; also recorded: ML290 responsiveness, albeit to a much lower level than in hRXFP1 (p < 0.001); also recorded: efficacy of ML290 stimulation was improved, however, it was still lower than in hRXFP1-transfected cells
[5]; Guinea pig/human chimera, summary grade, HEK293T cells
  Activation of RXFP1 receptors: *
[6]; FLAG-tagged R1- and R2-RXFP1, HTRF, 60 min, % of hRXFP1 activation by 10 nM RLN
  cAMP response, FLAG-tagged receptors: produced a cAMP increase in cells transfected with both rabbit receptors, albeit with lesser efficacy than hRXFP1
[6]; R1- and R2-RXFP1, 10 nM relaxin peptides or 5 μM ML290, HTRF
  statistical significance of response versus hRXFP1: statistically significant compared to hRXFP1, ***p < 0.001
[6]; R1- and R2-RXFP1, 5 μM ML290, HTRF, transiently transfected HEK293T
  cAMP response to 5 μM ML290: responded to 5 μM of ML290
[6]; R1-RXFP1 and R2-RXFP1, transiently transfected HEK293T, data not shown
  cAMP response: generated an increase in cAMP
[6]; Rabbit 1 and 2, summary grade, HEK293T cells
  Activation of RXFP1 receptors: **
[6]; rabbit RXFP1 variants, cAMP production, abstract/discussion
  activation of rabbit RXFP1 (summary): activated by ML290
[7]
  cAMP response: all three receptors respond to ML290
[8]; R1H- and R2H-RXFP1, HTRF, transiently transfected HEK293T, % of hRXFP1 activation by 10 nM RLN
  cAMP response: the level of activation of R1H- and R2H-RXFP1 was higher than that of R1-, R2-, or HR-RXFP1-transfected cells
[8]; Rabbit 1(2)/human chimera, summary grade, HEK293T cells
  Activation of RXFP1 receptors: **
[9]
  cAMP response (ML290), CRE-β-gal: comparable to hRXFP1
[10]
  activation of mouse RXFP1 (cAMP): does not activate the mouse receptor; also recorded: did not see an increase of cAMP; also recorded: no activation being seen in the direct HTRF cAMP assay; also recorded: did not activate the mouse RXFP1 receptor
[11]
  activation of mouse receptor with humanized ECL3: activated by ML290
